The record followed here is patent US8105577B1, “Prebiotic composition for increasing probiotic growth rate and activity” (Master Supplements, Inc., priority 2010, dated 2012).

Common to all, as to type: cell-based
Experiment [1] relates to Lactobacillus salivarius Ls-33 (LS-30). Briefly: Growth (turbidity) and lactic acid producing activity in MRS broth, L. salivarius Ls-33. Particulars: for pH: 0.1% in MRS (polysorbate 80 1.0 g/liter). How it is done: (§1) Each flask was tempered to 37° C. and aseptically inoculated with 0.14 gm of the individual probiotic strains (in Examples 5 to 10 below) to be tested. At specified time intervals, a 30 ml sample from each flask was aseptically transferred into a HACH […] Turbidimeter sample cell. The turbidity of each sample was read and the results were reported in NTU's. The same 30 ml sample used for the turbidity reading was transferred into a 250 ml glass beaker, and the pH was recorded. The sample was titrated using 0.1N NaOH to an endpoint of pH 6.8, and the quantity of NaOH used was recorded. The % Lactic Acid was calculated using the following formula: % Lactic Acid=((mls of 0.1N NaOH)×(0.1N)×(90 gm/mole)×(1 L/1000 ml))×100 mls of sample % Lactic Acid=(mls of 0.1N NaOH)×(0.9) (Results reported at 12 hours and 23 hours like: 12/23 in Table V below)

Experiment [2] has as its system THERALAC® Lot #32310A probiotic strains. Briefly: Growth of the commercial probiotic […] in MRS broth (turbidity, lactic acid, pH). The note with it: for pH: 0.1% in MRS (polysorbate 80 1.0 g/liter). How it is done: MRS broth was prepared with (for controls) and without (for tests) polysorbate 80 and filled into 1 liter screw cap flasks at 500 ml each and autoclaved at 121° C. for 30 minutes. Various lecithin and/or oleic acid additives, or nothing (negative control), was added to the tests flasks prior to autoclaving. The flasks were then tempered to 37° C. in a water bath and inoculated at 0.1% with […]® Lot #32310A, a commercial probiotic product (Master Supplements, Inc., Victoria, Minn.). Capsules of […]® were opened and the contents mixed aseptically to serve as the inoculum source. At an inoculation rate of 0.1%, approximately 80 million CFU was added per ml of MRS media. […]® contains (formulation strength) the following probiotic strains at the approximate CFU values listed per gram: Turbidity, pH and titrations (made with 0.1 N NaOH and reported as % lactic acid) were made at various times up to 23 hours. The results are presented below in Table VI for the 12 and 23-hour analyses.

Experiment [3] deals with Lactobacillus rhamnosus Lr-32 (LR-44). Briefly: Growth (turbidity) and lactic acid producing activity in MRS broth, L. rhamnosus Lr-32. The note with it: for pH: 0.1% in MRS (polysorbate 80 1.0 g/liter). How it is done: as §1, with “IV” for “V”
Experiment [4] deals with Lactobacillus acidophilus NCFM (LA-1). Briefly: Growth (turbidity) and lactic acid producing activity in MRS broth, L. acidophilus NCFM. Particulars: for pH: 0.1% in MRS (polysorbate 80 1.0 g/liter). As for the experimental part:
as §1, with “At” for “Each flask was tempered to 37° C. and aseptically inoculated with 0.14 gm of the individual probiotic strains (in Examples 5 to 10 below) to be tested. At”, “I” for “V”

In experiment [5] the test system is Lactobacillus paracasei Lpc-37 (F-19). As to the kind of experiment: Growth (turbidity) and lactic acid producing activity in MRS broth, L. paracasei Lpc-37. As for the experimental part:
as §1, with “III” for “V”

The subject of experiment [6] is Bifidobacterium lactis Bl-04 (BL-34). As to the kind of experiment: Growth (turbidity) and lactic acid producing activity in MRS broth, B. lactis Bl-04. The note with it: 0.1% in MRS (polysorbate 80 1.0 g/liter). How it is done:
as §1, with “II” for “V”

[7] abbreviates: 0.1% in MRS (polysorbate 80 1.0 g/liter), 12 hours.

For the molecule `CCCCCCCC/C=C\CCCCCCCC(=O)O` [Oleic Acid, oleic acid], the “effectiveness as polysorbate 80 replacement, in words” value is given as “not as good a replacement as a lag phase is apparent at 12 hours” in experiment [1] (0.1% inclusion rate in MRS), “acceptable replacement value for polysorbate 80 but is not as effective as either of the lecithins” in experiment [2] (0.1% inclusion rate in MRS), “shows an improvement over no polysorbate 80 on the 23-hour test but shows a significant lag phase at 12 hours; it is not as good a replacement for polysorbate 80 as sunflower lecithin” in experiment [3] (0.1% inclusion rate in MRS) and “shows an improvement over no polysorbate 80 but is not as effective a replacement for polysorbate 80 as sunflower lecithin” in experiment [5] (0.1% inclusion rate in MRS). Further, the “effectiveness as polysorbate 80 replacement (growth and lactic acid production), in words” value in experiment [4] (0.1% inclusion rate in MRS) is recorded as “somewhat effective as a polysorbate 80 replacement but not as effective as either sunflower or soy lecithin”.

As to polysorbate 80, the pH in experiment [1] (12 hours) was determined as 3.8; in experiment [1] (23 hours), 3.7; in experiment [2] (12 hours), 3.9; in experiment [2] (23 hours), 3.7; in experiment [3] (12 hours), 4.0; in experiment [3] (23 hours), 3.7. Further, the pH in experiment [4] (12 hours) is recorded as 4.2; in experiment [4] (23 hours) it was 4.1; in experiment [5] (setting [7]), 4.2; in experiment [5] (0.1% in MRS (polysorbate 80 1.0 g/liter), 23 hours) it was 3.9; in experiment [6] (12 hours) it was 4.8; in experiment [6] (23 hours), 4.5. For the same molecule, the figures for the “Lactic Acid %” value in experiment [5] (setting [7]), in experiment [6] (12 hours) and in experiment [6] (23 hours) were 0.99%, 0.57% and 0.84%, respectively.
